Structures can show the parent of a compound that is named as a salt. Where two headings read alike, the source gives them in different places. Marks after values point to notes of the source that are not given here.
Key:
[1] = cited from earlier work
[2] = Solubility of REG in supercritical CO2, static isobaric-isothermal method with UV-Vis quantification; format: physicochemical
Experimental: The solubility of REG in ScCO2 was measured using a pilot-scale apparatus, as depicted in Fig. 1. […] An F-1 CO2 cylinder, an F-2 needle valve, an F-3 molecular sieve filter, an F-4 refrigeration unit, an F-5 high-pressure pump, an F-6 air compressor, an F-7 oven, an F-8 magnetic stirrer, an F-9 high-pressure equilibrium cell, an F-10 3-position valve, and an F-16 back-pressure valve were all part of the apparatus.
In each experimental trial, a consistent amount of 1 g of the REG drug was administered into the immobile cell, which was subsequently positioned inside a thermal chamber. The aforementioned measure was enacted with the purpose of ensuring that the temperature remains within a narrow range of ±0.1 K from the designated experimental point. At both cell ends, stainless-steel sintered filters were added to limit undissolved REG. After that, high-pressure CO2 was poured into the cell and allowed to sit for 70 min in order to obtain saturation. Based on earlier studies, we know that 60 min is sufficient to achieve balance. The isobaric-isothermal category includes this kind of measurement. Throughout the experiment, the target temperatures and pressure levels were kept within ±0.1 K and ±0.1 MPa, respectively, for every data point. Following the triplicate execution of the experiments, the average solubility values were computed.
After reaching equilibrium, we used a 2-position 6-way port valve to collect 600 μL of saturated ScCO2 samples. The materials were thereafter transferred into a vial that was pre-filled with dimethyl sulfoxide (DMSO). The flow rate was managed by means of a micrometer valve. Each experiment was finished with the flow line being purified with 1 mL of DMSO after 5 mL of the solution had been collected. Using a UNICO-4802 UV–Vis spectrophotometer set to a peak wavelength (λmax) of 275 nm, we examined the absorbance of REG in DMSO for solubility assessment. The solubility of REG in ScCO2 was determined according to a given equation. The amount of REG dissolved in ScCO2, denoted as (y2), was measured in terms of mole fraction. […] The quantification of the dissolved substance was accomplished through the measurement of UV absorbance. The calculation of the moles of REG (nREG) and CO2 (n1) in the loop was performed as follows:(1) nREG=CREG(g/L).VREG(L)/MREG(g/mol) (2) n1=V1(L).ρ1(g/L)/M1(g/mol)
The concentration of REG (g/L) in the collection vial is denoted as CREG. The sampling loop and the collection vial are represented by V1 (L) and VREG (L), respectively. The symbols M1 and MREG represent the molar masses of carbon dioxide (CO2) and a substance denoted as REG, respectively. The method out-lined in references was employed to determine the equilibrium mole fraction of REG, denoted as y2, in supercritical CO2 under varying temperatures and pressures.(3) y2=nREG/n1+nREG
The following equation was applied to determine the solubility of REG, S (in g/L), in the supercritical CO2(4) S=CREG(g/L).VREG(L)/V1(L)
Eq. (4) can be reformulated as below:(5) S=ρMREG/M1y2/(1−y2) In fact, Eq. (5) is another form of Eq. (4).

[3] = Total, vaporization and solvation enthalpies of the REG-ScCO2 system estimated from Chrastil, Kumar-Johnston and Bartle et al. model constants; format: physicochemical
Source text: In Fig. 3, the self-consistency test of experimental REG solubility data employed the models Chrastil, Kumar-Johnston, Bartle et al., and Mendez-Teja. […] In other words, wherein all data points at different isotherms falls onto a single straight line, indicating the self-consistency test for the solubility of REG in ScCO2 at different temperatures.
Analogous techniques were applied for Galantamine, Clonazepam, Lansoprazole, and Esomeprazole. Finally, the total (ΔHtot-=-41.16 kJ/mol), vaporization (ΔHvap-=-60.04 kJ/mol), and solvation (ΔHsol-=-18.88 kJ/mol) enthalpies for the REG-ScCO2 binary system were estimated as part of this work. More detail of enthalpies of the REG can be seen in Table 4.

[4] = design: method as in PMID 28214672, doi:10.1016/j.jddst.2019.101462; conditions: pH 6.5 and 22–23 °C; cited from earlier work

In the case of `CC(=O)N(c1ccccc1)c1ccc(C)cc1` [4-Methyl-N-phenylacetanilide], the “Mole fraction solubility in ScCO2” value ([1]; N 21, T 308-328 K, P 12.16-22.5 MPa, ref [2] of supplement) is listed as 38.4-480.2 (×10^6) mole fraction.
In the case of `Cc1ccc(C(=O)O)cc1` [4-Methylbenzoic acid], the “Mole fraction solubility in ScCO2” value ([1]; N 18, T 313-333 K, P 11-24.6 MPa, ref [3] of supplement) is given as 43-702 (×10^6) mole fraction.
For `CS(=O)(=O)OCCCCOS(C)(=O)=O` [Busulfan], the “Mole fraction solubility in ScCO2” value ([1]; N 32, T 308-328 K, P 12-40 MPa, ref [5] of supplement) is given as 32.7-865 (×10^6) mole fraction.
For `O=C(O)c1ccccc1Nc1cccc(Cl)c1Cl` [Clofenamic acid], the “Mole fraction solubility in ScCO2” value ([1]; N 24, T 313-333 K, P 12-36 MPa, ref [9] of supplement) is listed as 1.54-35.44 (×10^6) mole fraction.
In the case of `CC(C)(Oc1ccc(Cl)cc1)C(=O)O` [Clofibric acid], the “Mole fraction solubility in ScCO2” value ([1]; N 21, T 308-328 K, P 10.01-22.02 MPa, clofibric acid, ref [7] of supplement) is listed as 32.1-856 (×10^6) mole fraction.
In the case of `O=C1CN=C(c2ccccc2Cl)c2cc([N+](=O)[O-])ccc2N1` [Clonazepam], the “Mole fraction solubility in ScCO2” value ([1]; N 28, T 308-338 K, P 12-30 MPa, ref [1] of supplement) is given as 3.9-72.6 (×10^6) mole fraction.
In the case of `Cc1nc(Nc2ncc(C(=O)Nc3c(C)cccc3Cl)s2)cc(N2CCN(CCO)CC2)n1` [Dasatinib monohydrate], the “Mole fraction solubility in ScCO2” value ([1]; N 24, T 328-338 K, P 12-27 MPa, ref [11] of supplement) is given as 0.45 - 9.08 (×10^6) mole fraction.
In the case of `Cc1ccc(C)c(OCCCC(C)(C)C(=O)O)c1` [Gemfibrozil], the “Mole fraction solubility in ScCO2” value ([1]; N 21, T 308-328 K, P 10.01-22.02 MPa, gemfibrozil, ref [7] of supplement) is listed as 29.4-4190 (×10^6) mole fraction.
In the case of `Nc1nnc(-c2cccc(Cl)c2Cl)c(N)n1` [Lamotrigine], the “Mole fraction solubility in ScCO2” value ([1]; N 36, T 318-338 K, P 12.16-35.46 MPa, ref [8] of supplement) is listed as 0.3-5.9 (×10^6) mole fraction.
For `COc1cc2nc(N3CCN(C(=O)c4ccco4)CC3)nc(N)c2cc1OC` [Prazosin Hydrochloride], the “Mole fraction solubility in ScCO2” value ([1]; N 24, T 328-338 K, P 12-27 MPa, ref [12] of supplement) is given as 1.5-72 (×10^6) mole fraction.
`CNC(=O)c1cc(Oc2ccc(NC(=O)Nc3ccc(Cl)c(C(F)(F)F)c3)c(F)c2)ccn1` [Regorafenib monohydrate, 4-(4-(3-(4-chloro-3-(trifluoromethyl)phenyl)ureido)-3-fluorophenoxy)-N-methylpicolinamide] showed a S (equilibrium solubility) in ScCO2 ([2]; 308 K, 120 bar, CO2 density 769 kg/m^3) of 10.6 µg/mL, a S (equilibrium solubility) in ScCO2 ([2]; 308 K, 150 bar, CO2 density 817 kg/m^3) of 15.5 µg/mL and a S (equilibrium solubility) in ScCO2 ([2]; 308 K, 180 bar, CO2 density 849 kg/m^3) of 18 µg/mL. It also gave a S (equilibrium solubility) in ScCO2 ([2]; 308 K, 210 bar, CO2 density 875 kg/m^3) of 22.6 µg/mL, a S (equilibrium solubility) in ScCO2 ([2]; 308 K, 240 bar, CO2 density 896 kg/m^3) of 29.2 µg/mL and a S (equilibrium solubility) in ScCO2 ([2]; 308 K, 270 bar, CO2 density 914 kg/m^3) of 31.5 µg/mL. For the same molecule, the S (equilibrium solubility) in ScCO2 ([2]; 318 K, 120 bar, CO2 density 661 kg/m^3) was 7.2 µg/mL, the S (equilibrium solubility) in ScCO2 ([2]; 318 K, 150 bar, CO2 density 744 kg/m^3) was 9.8 µg/mL and the S (equilibrium solubility) in ScCO2 ([2]; 318 K, 180 bar, CO2 density 791 kg/m^3) was 12.4 µg/mL. The S (equilibrium solubility) in ScCO2 ([2]; 318 K, 210 bar, CO2 density 824 kg/m^3) was 28.7 µg/mL, the S (equilibrium solubility) in ScCO2 ([2]; 318 K, 240 bar, CO2 density 851 kg/m^3) was 31.9 µg/mL and the S (equilibrium solubility) in ScCO2 ([2]; 318 K, 270 bar, CO2 density 872 kg/m^3) was 37.2 µg/mL. It also gave a S (equilibrium solubility) in ScCO2 ([2]; 328 K, 120 bar, CO2 density 509 kg/m^3) of 3.6 µg/mL, a S (equilibrium solubility) in ScCO2 ([2]; 328 K, 150 bar, CO2 density 656 kg/m^3) of 7 µg/mL and a S (equilibrium solubility) in ScCO2 ([2]; 328 K, 180 bar, CO2 density 725 kg/m^3) of 10 µg/mL. For the same molecule, the S (equilibrium solubility) in ScCO2 ([2]; 328 K, 210 bar, CO2 density 769 kg/m^3) was 33.1 µg/mL, the S (equilibrium solubility) in ScCO2 ([2]; 328 K, 240 bar, CO2 density 802 kg/m^3) was 37.1 µg/mL and the S (equilibrium solubility) in ScCO2 ([2]; 328 K, 270 bar, CO2 density 829 kg/m^3) was 39.2 µg/mL. It also gave a S (equilibrium solubility) in ScCO2 ([2]; 338 K, 120 bar, CO2 density 388 kg/m^3) of 1.3 µg/mL, a S (equilibrium solubility) in ScCO2 ([2]; 338 K, 150 bar, CO2 density 557 kg/m^3) of 3.7 µg/mL and a S (equilibrium solubility) in ScCO2 ([2]; 338 K, 180 bar, CO2 density 652 kg/m^3) of 7.2 µg/mL. The S (equilibrium solubility) in ScCO2 ([2]; 338 K, 210 bar, CO2 density 710 kg/m^3) was 34.6 µg/mL, the S (equilibrium solubility) in ScCO2 ([2]; 338 K, 240 bar, CO2 density 751 kg/m^3) was 41 µg/mL and the S (equilibrium solubility) in ScCO2 ([2]; 338 K, 270 bar, CO2 density 783 kg/m^3) was 55.3 µg/mL. For the same molecule, the “crossover pressure of the solubility isotherms in ScCO2” value ([2]; isotherms 308–338 K) was 18–21 MPa, the “maximum equilibrium mole fraction in ScCO2” value ([2]; over 308–338 K and 120–270 bar, maximum at 338 K and 27 MPa, listed as REG) was 6.44×10^−6 mole fraction and the “minimum equilibrium mole fraction in ScCO2” value ([2]; over 308–338 K and 120–270 bar, minimum at 338 K, listed as REG) was 3.06×10^−7 mole fraction. The “vaporization enthalpy ΔHvap” value ([3]; based on Bartle et al. model) was 14.35 kcal/mol, the ΔHtot ([3]; based on Kumar-Johnston model) was 9.833 kcal/mol and the ΔHtot ([3]; based on the Chrastil model) was 9.84 kcal/mol. The solubility in water [4] was 0.12 µg/mL.

— paper PMC11052913, “Determination of Regorafenib monohydrate (colorectal anticancer drug) solubility in supercritical CO2: Experimental and thermodynamic modeling” (Heliyon, 2024)
